{
  "source": "patent US20070196517A1",
  "about": "“Modified Saponin Molluscicide” (priority 2005, published 2007)",
  "origin": "cited, not measured here",
  "key": {"[1]": {"system": "golden apple snails", "conditions": "rice fields (Bayer, 2005)"}, "[2]": {"system": "tropical fish (carp)", "conditions": "carp (WHO 2002)"}},
  "note": "Structures can show the parent of a compound that is named as a salt.",
  "data": [
    {"smiles": "O=C(Nc1ccc([N+](=O)[O-])cc1Cl)c1cc(Cl)ccc1O", "note": "[Niclosamide, 2-aminoethanol salt of 2′,5-dichloro-4′,nitro-salicylanilide]", "values": [
      {"measurement": "effective doses for control of golden apple snail", "setting": "[1]", "result": "0.5 to 1.0", "unit": "mg/L"},
      {"measurement": "LC50 (kills 50% of tropical fish)", "setting": "[2]", "result": 0.14, "unit": "mg/L"}
    ]}
  ]
}
